Data as given in patent US12507721B2, “Ready-to-use parenteral nutrition formulation” (BAXTER INTERNATIONAL INC., priority 2021, dated 2025).
Marks after values point to notes of the source that are not given here.

Tests used:
Type in all cases: physicochemical
[1] = Vitamin B12 stability in 20% lipid emulsion during sterilization and storage; settings: for T1M40° C. concentration: 1 month at 40° C.; for T6M40° C. concentration: 6 months at 40° C., sum of cyanocobalamin and hydroxocobalamin
Procedure: (§1) For testing the stability of vitamin B12 in formulation as they are typically used in parenteral nutrition, a 35% glucose solution, a 14.2% amino acid formulation such as found, for example, in Olimel N9E (Baxter), and a 20% lipid emulsion such as found in Clinoleic 20% (Baxter) were supplemented with different vitamin combinations which always included vitamin B12. KCl was added into the glucose solution to understand if it has an effect on the stability of vitamin B12. Vitamin B1 was introduced as thiamin HCl. Ascorbyl palmitate was added to the lipid emulsion formulation as a stabilizing agent due to its antioxidant properties. In addition, two separate micellar solutions (“Vit A” and “Vit B”, see Table 9) comprising certain vitamins to be assessed with regard to degradation (B3, B6, B8, B9, B12, C) but formulated with different excipients as micellization agents were tested for vitamin B12 stability. Vit A consisted of a solution of mixed micelles with ascorbyl palmitate as a potential stability enhancer. Vit B was formulated with a mix of polysorbates, PEG and sorbitol to form micelles. The micellar solutions were prepared by mixing, under high speed, a solution composed of glycocholic acid and lecithins dissolved in water. In case of Vit B, the glycocholic acid and lecithin were replaced by PEG and polysorbate. All formulations were provided in standard flexible containers and overpouched with an aluminum overpouch for subsequent sterilization. For an overview over formulations and conditions see Table 9.
(§2) All samples were submitted to two different sterilization technologies. Steam sterilization targeting a F0=8 min was used for large volumes (400/800 ml, Cycle 2) and for small volumes (25/50 ml, Cycle 1) as lined out in Table 9 above. The same samples were sterilized by water spray sterilization with a serial tower continuous sterilization equipment with two different exposure times (Cycles 3 (25 min.) and 4 (19 min.)).
(§3) The vitamin recovery was then compared between the different sterilization cycles and formulations to understand the impact of the formulation and the sterilization technology used on their respective short- and long-term stability. Therefore, after sterilization, the samples were stored at 40° C./25% RH for 6 months to evaluate the recovery of vitamin B12 at T1M, T3M and T6M. Besides, backup samples were stored at 5° C. Finally, some samples were also stored at 25° C./40% RH to provide for real time stability data.
Vitamin B12 was also considerably degraded in the lipid emulsion (Tables 12 through 15). […] The instability of vitamin B12 in the standard lipid emulsions is probably linked to the presence of ascorbyl palmitate, which is generally present as an antioxidant. It should thus be avoided in formulations according to the invention.

[2] = Vitamin stability in 35% glucose solution during sterilization and storage; settings: 35% glucose solution; for T1M40° C. concentration: 1 month at 40° C.; for T3M40° C. concentration: 3 months at 40° C.; for T6M40° C. concentration: 6 months at 40° C., B12 value (*) is the sum of cyanocobalamin and hydroxocobalamin
Procedure: as §1, §2, §3

[3] = Vitamin B12 stability in mixed micelle solutions; settings: both mixed micelle solutions (Vit A, Vit B); steam or water spray sterilization
Procedure: For testing the stability of vitamin B12 in formulation as they are typically used in parenteral nutrition, a 35% glucose solution, a 14.2% amino acid formulation such as found, for example, in Olimel N9E (Baxter), and a 20% lipid emulsion such as found in Clinoleic 20% (Baxter) were supplemented with different vitamin combinations which always included vitamin B12. KCl was added into the glucose solution to understand if it has an effect on the stability of vitamin B12. Vitamin B1 was introduced as thiamin HCl. Ascorbyl palmitate was added to the lipid emulsion formulation as a stabilizing agent due to its antioxidant properties. In addition, two separate micellar solutions (“Vit A” and “Vit B”, see Table 9) comprising certain vitamins to be assessed with regard to degradation (B3, B6, B8, B9, B12, C) but formulated with different excipients as micellization agents were tested for vitamin B12 stability. Vit A consisted of a solution of mixed micelles with ascorbyl palmitate as a potential stability enhancer. […]
Accordingly, mixed micelles solutions having smaller volumes (25 ml or 50 ml, see Table 9) were produced according to known methods. […] The mixed micelles solutions from Table 5 were then sterilized according to Cycles 1, 2, 3 and 4 as described before and the degradation of vitamin B12 during sterilization and subsequent storage was monitored as described before.

[4] = 25 ml, Cycle 1 steam sterilization
[5] = 800 ml, Cycle 2 steam sterilization
[6] = 800 ml, Cycle 3 water spray sterilization
[7] = 800 ml, Cycle 4 water spray sterilization

Substance: cobalamin [Batch B12]
- Unsterilized T0 concentration ([1]; 20% lipid emulsion (Table 14)): 0.014 mg/L
- Unsterilized T0 concentration ([1]; 20% lipid emulsion (Table 15)): 0.014 mg/L
- Unsterilized T0 concentration ([1]; 20% lipid emulsion with ascorbyl palmitate (Table 12)): 0.015 mg/L
- T1M40° C. concentration ([1]; 20% lipid emulsion, Cycle 1 steam sterilization): 0.004 mg/L
- T3M40° C. concentration ([1]; 20% lipid emulsion, Cycle 1 steam sterilization, 3 months at 40° C.): <LOD
- T1M40° C. concentration ([1]; 20% lipid emulsion, Cycle 2 steam sterilization): <LOD
- Cycle 2 T0 concentration ([1]; 20% lipid emulsion, Cycle 2 steam sterilization, after sterilization): 0.005 mg/L
- T6M40° C. concentration ([1]; 20% lipid emulsion, Cycle 3 water spray sterilization (Table 14)): 0.0037* mg/L
- Cycle 3 T0 concentration ([1]; 20% lipid emulsion, Cycle 3 water spray sterilization (Table 14), after sterilization): 0.005 mg/L
- T6M40° C. concentration ([1]; 20% lipid emulsion, water spray sterilization (Table 15, head: Cycle 3)): 0.0055* mg/L
- Cycle 3 T0 concentration ([1]; 20% lipid emulsion, water spray sterilization with serial tower continuous sterilization equipment (Table 15, head: Cycle 3), after sterilization): 0.006 mg/L
- Unsterilized T0 concentration ([2]; 25 ml (Table 10A)): 0.0062 mg/L
- T1M40° C. concentration [2, 4]: 0.0045 mg/L
- T3M40° C. concentration [2, 4]: 0.0037 mg/L
- Unsterilized T0 concentration ([2]; 800 ml (Table 10B)): 0.0062 mg/L
- Unsterilized T0 concentration ([2]; 800 ml (Table 11A)): 0.006 mg/L
- Unsterilized T0 concentration ([2]; 800 ml (Table 11B)): 0.006 mg/L
- T1M40° C. concentration [2, 5]: 0.0040 mg/L
- T3M40° C. concentration [2, 5]: 0.0036 mg/L
- Cycle 3 T0 concentration ([2]; 800 ml, Cycle 3 water spray sterilization, C0 = 25 minutes, after sterilization): 0.0051 mg/L
- T3M40° C. concentration [2, 6]: 0.0041 mg/L
- T6M40° C. concentration [2, 6]: 0.0023* mg/L
- Cycle 4 T0 concentration ([2]; 800 ml, Cycle 4 water spray sterilization, C0 = 19 minutes, after sterilization): 0.0052 mg/L
- T3M40° C. concentration [2, 7]: 0.0041 mg/L
- T6M40° C. concentration [2, 7]: 0.0031* mg/L
- degradation after sterilization and subsequent storage [3]: almost complete degradation
